Counter-ions that a name gives are not always drawn.
Key:
Assay type in all cases: biochemical
[1] = molecular target: human recombinant SSAO/VAP-1 (Homo sapiens (Human), UniProt Q16853); assay: Inhibition of human recombinant SSAO/VAP-1 amine oxidase activity; conditions: 30 min preincubation at 37° C., 600 μM benzylamine
Description: Method to Determine the Ability of Compounds of Formula I to Inhibit Human Recombinant SSAO/VAP-1
Human recombinant SSAO/VAP-1 amine oxidase activity was determined using the coupled colorimetric method as described for monoamine oxidase, copper-containing amine oxidases and related enzymes (Holt A. and Palcic M., A peroxidase-coupled continuous absorbance plate-reader assay for flavin monoamine oxidases, copper-containing amine oxidases and related enzymes. Nat Protoc 2006; 1: 2498-2505). Briefly, a cloned cDNA template corresponding to residues 34-763 of human SSAO/VAP-1, and incorporating a mouse Ig kappa (κ) signal sequence, N-terminal flag epitope tag and tobacco etch virus (TEV) cleavage site, was assembled in a mammalian expression vector (pLO-CMV) by Geneart AG. This vector containing human SSAO/VAP-1 residues was transfected into CHO-K1 glycosylation mutant cell line, Lec 8. A clone stably expressing human SSAO/VAP-1 was isolated and cultured in large scale. Active human SSAO/VAP-1 was purified and recovered using immunoaffinity chromatography. This was used as the source for SSAO/VAP-1 activity. A high-throughput colorimetric assay was developed using either 96 or 384 well format. Briefly, in a standard 96 well plate assay 50 μL of purified human SSAO/VAP-1 (0.25 μg/mL) in 0.1 M sodium phosphate buffer (pH 7.4) was added into each well. Test compounds were dissolved in DMSO and tested in a Concentration Response Curve (CRC) with 4-11 data points, typically in the micromolar or nanomolar range after incubation with human SSAO/VAP-1 for 30 min at 37° C. After 30 min incubation, 50 μL of the reaction mixture containing 600 μM benzylamine (Sigma Aldrich), 120 μM Amplex Red (Sigma Aldrich) and 1.5 U/mL horseradish peroxidase (Sigma Aldrich) prepared in 0.1 M sodium phosphate buffer (pH 7.4) were added to the corresponding well. The fluorescence unit (RFU) was read every 2.5 min for 30 min at 37° C. excitation 565 nm and emission 590 (Optima; BMG labtech). The slope of the kinetics for each well was calculated using MARS data analysis software (BMG labtech) and this value was used to deduce the IC50 value (Dotmatics).

Recombinant human MAO-B = Recombinant human MAO-B (Homo sapiens (Human), UniProt P27338); assay: Inhibition of human recombinant MAO-B; conditions: benzylamine 100 μM
Sequence of Recombinant human MAO-B (P27338 whole entry): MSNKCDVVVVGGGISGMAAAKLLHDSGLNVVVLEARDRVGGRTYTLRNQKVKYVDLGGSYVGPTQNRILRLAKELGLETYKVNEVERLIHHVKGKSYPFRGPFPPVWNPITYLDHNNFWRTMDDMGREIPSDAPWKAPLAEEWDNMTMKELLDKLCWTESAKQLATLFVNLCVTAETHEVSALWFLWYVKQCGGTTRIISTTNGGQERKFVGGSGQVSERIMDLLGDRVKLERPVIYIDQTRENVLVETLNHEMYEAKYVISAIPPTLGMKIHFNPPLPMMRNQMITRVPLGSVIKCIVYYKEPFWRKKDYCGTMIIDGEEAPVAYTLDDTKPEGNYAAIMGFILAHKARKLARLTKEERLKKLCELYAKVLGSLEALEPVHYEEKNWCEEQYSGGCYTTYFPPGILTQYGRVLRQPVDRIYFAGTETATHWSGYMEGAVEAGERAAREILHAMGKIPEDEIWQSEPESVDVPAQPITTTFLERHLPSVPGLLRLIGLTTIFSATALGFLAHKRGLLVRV
Description: Method to Determine the Ability of Compounds of Formula I to Inhibit Human Recombinant MAO-B
The specificity of the compounds of this invention was tested by determining their ability to inhibit MAO-B activities in vitro. Recombinant human MAO-B (0.06 mg/mL; Sigma Aldrich) was used as source of MAO-B enzyme activities. The assay was performed in a similar way as for human SSAO/VAP-1 (Example 66) except, the substrate benzylamine was used at 100 μM.

Human LOXL2 = Human LOXL2 (Homo sapiens (Human), UniProt Q9Y4K0); assay: LOXL2 inhibition, peroxidase-coupled Amplex Red amine oxidase assay; conditions: 30 min preincubation at 37° C., putrescine substrate
Sequence of Human LOXL2 (Q9Y4K0 26-774): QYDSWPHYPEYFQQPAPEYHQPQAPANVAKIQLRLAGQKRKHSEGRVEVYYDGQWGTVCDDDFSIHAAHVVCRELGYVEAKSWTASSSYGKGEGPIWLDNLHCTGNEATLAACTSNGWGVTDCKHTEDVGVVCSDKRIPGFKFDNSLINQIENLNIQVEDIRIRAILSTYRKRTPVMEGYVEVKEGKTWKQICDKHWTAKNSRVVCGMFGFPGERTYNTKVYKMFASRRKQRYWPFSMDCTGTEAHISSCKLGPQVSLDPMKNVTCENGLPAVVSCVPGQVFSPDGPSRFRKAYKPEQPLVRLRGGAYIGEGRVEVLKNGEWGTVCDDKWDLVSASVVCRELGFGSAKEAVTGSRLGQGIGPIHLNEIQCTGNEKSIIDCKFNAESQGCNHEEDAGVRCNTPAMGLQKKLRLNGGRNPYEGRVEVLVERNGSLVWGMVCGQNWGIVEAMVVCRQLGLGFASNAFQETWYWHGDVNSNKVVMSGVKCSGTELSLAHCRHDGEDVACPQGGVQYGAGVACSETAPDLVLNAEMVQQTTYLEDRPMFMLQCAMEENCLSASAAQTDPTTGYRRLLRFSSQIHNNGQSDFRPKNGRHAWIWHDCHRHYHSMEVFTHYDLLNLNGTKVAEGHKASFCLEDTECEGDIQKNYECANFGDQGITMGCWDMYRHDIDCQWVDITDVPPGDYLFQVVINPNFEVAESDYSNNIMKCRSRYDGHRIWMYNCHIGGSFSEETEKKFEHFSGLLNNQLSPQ
Text: (§1) Method to Determine the Ability of Compounds of the Invention to Inhibit LOX and LOXL1-4 from Different Sources
(§2) Lysyl oxidase (LOX) is an extracellular copper dependent enzyme which oxidizes peptidyl lysine and hydroxylysine residues in collagen and lysine residues in elastin to produce peptidyl alpha-aminoadipic-delta-semialdehydes. […] There are five LOX family members; these are LOX, LOXL1, LOXL2, LOXL3 and LOXL4. LOX and LOXL family members can be acquired as recombinant active proteins from commercial sources, or extracted from animal tissues like bovine aorta, tendons, pig skin; or prepared from cell cultures. The inhibitory effects of the compounds of the present invention were tested against the given LOX-LOXL preparation using a high-throughput coupled colorimetric method (Holt A. and Palcic M., A peroxidase-coupled continuous absorbance plate-reader assay for flavin monoamine oxidases, copper-containing amine oxidases and related enzymes. Nat. Protoc. 2006; 1: 2498-2505). The assay was developed using either 384 or 96 well format. Briefly, in a standard 384 well plate assay 25 μL of a dilution of any of the isoenzymes and orthologues in 1.2 M urea, 50 mM sodium borate buffer (pH 8.2) were added into each well in the presence of 1 μM mofegiline and 0.5 mM pargyline (to inhibit SSAO and MAO-B and MAO-A, respectively). Test compounds were dissolved in DMSO and tested in a Concentration Response Curve (CRC) with 11 data points, typically in the micromolar or nanomolar range after incubation with the enzyme for 30 min at 37° C. Twenty five L of a reaction mixture containing twice the KM concentration of putrescine (Sigma Aldrich, e.g. 20 mM for LOX, or 10 mM for LOXL2 and LOXL3), 120 μM Amplex Red (Sigma Aldrich) and 1.5 U/mL horseradish peroxidase (Sigma Aldrich) prepared in 1.2 M urea, 50 mM sodium borate buffer (pH 8.2) were then added to the corresponding wells. The above volumes were doubled in the case of 96 wells plate. The fluorescence (RFU) was read every 2.5 min for 30 min at a range of temperatures from 37° to 45° C., excitation 565 nm and emission 590 (Optima; BMG labtech). The slope of the kinetics for each well was calculated using MARS data analysis software (BMG labtech) and this value was used to deduce the IC50 value (Dotmatics).

Bovine LOX = Bovine LOX (Bos taurus (Bovine), UniProt P33072); assay: LOX inhibition, peroxidase-coupled Amplex Red amine oxidase assay; conditions: 30 min preincubation at 37° C., putrescine substrate
Sequence of Bovine LOX (P33072 170-418): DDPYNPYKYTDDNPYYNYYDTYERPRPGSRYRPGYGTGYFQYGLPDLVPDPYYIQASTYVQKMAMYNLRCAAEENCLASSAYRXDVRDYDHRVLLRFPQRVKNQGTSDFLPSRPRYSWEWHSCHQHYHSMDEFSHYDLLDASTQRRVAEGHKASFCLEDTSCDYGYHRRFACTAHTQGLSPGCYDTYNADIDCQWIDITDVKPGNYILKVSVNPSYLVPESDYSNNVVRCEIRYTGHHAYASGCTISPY
Text: as §1
as §2, with “Test compounds were dissolved in DMSO and tested in a Concentration Response Curve (CRC) with 11 data points, typically in the micromolar or nanomolar range after incubation with the enzyme for 30 min at 37° C.” left out

Sequence of human recombinant SSAO/VAP-1 (Q16853 34-763): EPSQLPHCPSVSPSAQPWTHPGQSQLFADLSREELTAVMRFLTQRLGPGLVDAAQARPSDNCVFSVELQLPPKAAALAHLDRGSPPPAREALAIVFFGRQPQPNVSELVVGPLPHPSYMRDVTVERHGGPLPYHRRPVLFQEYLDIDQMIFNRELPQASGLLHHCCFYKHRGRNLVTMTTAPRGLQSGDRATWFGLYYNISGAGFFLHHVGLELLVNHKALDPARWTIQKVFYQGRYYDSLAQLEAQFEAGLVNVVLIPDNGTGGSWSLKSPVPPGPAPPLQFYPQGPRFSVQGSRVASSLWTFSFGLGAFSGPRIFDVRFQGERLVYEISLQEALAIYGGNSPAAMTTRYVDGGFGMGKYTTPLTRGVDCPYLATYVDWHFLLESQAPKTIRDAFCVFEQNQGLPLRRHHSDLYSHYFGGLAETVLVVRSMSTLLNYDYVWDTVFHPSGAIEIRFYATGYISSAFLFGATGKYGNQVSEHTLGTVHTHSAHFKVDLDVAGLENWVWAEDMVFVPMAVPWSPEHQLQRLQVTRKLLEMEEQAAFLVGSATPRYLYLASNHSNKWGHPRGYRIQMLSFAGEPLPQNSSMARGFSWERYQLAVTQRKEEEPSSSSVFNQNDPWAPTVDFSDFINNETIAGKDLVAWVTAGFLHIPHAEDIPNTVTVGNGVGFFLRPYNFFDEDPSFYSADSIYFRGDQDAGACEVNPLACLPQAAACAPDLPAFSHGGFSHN

## Cc1c(-c2cccc(S(C)(=O)=O)c2)c2cc(C(=O)N(C)C)ccc2n1C/C(F)=C/CN [Compound 50, (Z)-1-(4-amino-2-fluorobut-2-en-1-yl)-N,N,2-trimethyl-3-(3-(methylsulfonyl)phenyl)-1H-indole-5-carboxamide]
[1]
  IC50: > 3 µM
Recombinant human MAO-B
  IC50: > 3 µM
Human LOXL2
  IC50: < 0.3 µM
Bovine LOX
  IC50: > 0.3 µM

## Cc1c(-c2cccc(S(=O)(=O)N(C)C)c2)c2cc(C(F)F)ccc2n1C/C(F)=C/CN [Compound 59, (Z)-3-(1-(4-amino-2-fluorobut-2-en-1-yl)-5-(difluoromethyl)-2-methyl-1H-indol-3-yl)-N,N-dimethylbenzene-sulfonamide]
[1]
  IC50: > 3 µM
Recombinant human MAO-B
  IC50: > 3 µM
Human LOXL2
  IC50: < 0.3 µM
Bovine LOX
  IC50: > 0.3 µM

## Cc1c(-c2cccc(S(=O)(=O)N(C)C)c2)c2cc(C(=O)N(C)C(C)C)ccc2n1C/C(F)=C/CN [Compound 36, (Z)-1-(4-amino-2-fluorobut-2-en-1-yl)-3-(3-(N,N-dimethylsulfamoyl)phenyl)-N-isopropyl-N,2-dimethyl-1H-indole-5-carboxamide]
[1]
  IC50: > 3 µM
Recombinant human MAO-B
  IC50: > 3 µM
Human LOXL2
  IC50: < 0.3 µM
Bovine LOX
  IC50: > 0.3 µM

## Cc1c(-c2cncc(S(=O)(=O)N(C)C)c2)c2ccc(Cl)cc2n1C/C(F)=C/CN [Compound 67, (Z)-5-(1-(4-amino-2-fluorobut-2-en-l-yl)-6-chloro-2-methyl-1H-indol-3-yl)-N,N-dimethylpyridine-3-sulfonamide, Dihydrochloride]
[1]
  IC50: > 3 µM
Recombinant human MAO-B
  IC50: > 3 µM
Human LOXL2
  IC50: < 0.3 µM
Bovine LOX
  IC50: > 0.3 µM

## COc1ccc2c(n1)c(-c1cccc(S(C)(=O)=O)c1)c(C)n2C/C(F)=C/CN [Compound 69, (Z)-3-fluoro-4-(5-methoxy-2-methyl-3-(3-(methylsulfonyl)phenyl)-1H-pyrrolo[3,2-b]pyridin-1-yl)but-2-en-1-amine Dihydrochloride]
[1]
  IC50: > 3 µM
Recombinant human MAO-B
  IC50: > 3 µM
Human LOXL2
  IC50: < 0.3 µM
Bovine LOX
  IC50: > 0.3 µM

## Cc1c(-c2cncnc2)c2cc(Cl)ccc2n1C/C(F)=C/CN [Compound 80, (Z)-4-(5-chloro-2-methyl-3-(pyrimidin-5-yl)-1H-indol-1-yl)-3-fluorobut-2-en-1-amine]
[1]
  IC50: > 3 µM
Recombinant human MAO-B
  IC50: > 3 µM
Human LOXL2
  IC50: < 0.3 µM
Bovine LOX
  IC50: > 0.3 µM

## COc1ccc2c(c1)c(-c1cccc(S(=O)(=O)N(C)C)c1)c(C)n2C/C(F)=C/CN [Compound 49, (Z)-3-(1-(4-amino-2-fluorobut-2-en-1-yl)-5-methoxy-2-methyl-1H-indol-3-yl)-N,N-dimethylbenzenesulfonamide]
[1]
  IC50: > 3 µM
Recombinant human MAO-B
  IC50: > 3 µM
Human LOXL2
  IC50: < 0.3 µM
Bovine LOX
  IC50: > 0.3 µM

## Cc1c(-c2cncc(S(=O)(=O)N(C)C)c2)c2cc(C3CC3)ccc2n1C/C(F)=C/CN [Compound 79, (Z)-5-(1-(4-amino-2-fluorobut-2-en-1-yl)-5-cyclopropyl-2-methyl-1H-indol-3-yl)-N,N-dimethylpyridine-3-sulfonamide]
[1]
  IC50: > 3 µM
Recombinant human MAO-B
  IC50: > 3 µM
Human LOXL2
  IC50: < 0.3 µM
Bovine LOX
  IC50: > 0.3 µM

## Cc1c(-c2cccc(S(=O)(=O)C(C)C)c2)c2nc(C(C)(C)O)ccc2n1C/C(F)=C/CN [Compound 117, (Z)-2-(1-(4-amino-2-fluorobut-2-en-1-yl)-3-(3-(isopropylsulfonyl)phenyl)-2-methyl-1H-pyrrolo[3,2-b]pyridin-5-yl)propan-2-ol Dihydrochloride]
Human LOXL2
  IC50: < 0.3 µM
Bovine LOX
  IC50: > 0.3 µM

## Cc1c(-c2cncc(S(C)(=O)=O)c2)c2cc(Cl)ccc2n1C/C(F)=C/CN [Compound 65, (Z)-4-(5-chloro-2-methyl-3-(5-(methylsulfonyl)pyridin-3-yl)-1H-indol-1-yl)-3-fluorobut-2-en-1-amine]
[1]
  IC50: > 3 µM
Recombinant human MAO-B
  IC50: > 3 µM
Human LOXL2
  IC50: < 0.3 µM
Bovine LOX
  IC50: > 0.3 µM

## CCS(=O)(=O)c1cccc(-c2c(C(C)C)n(C/C(F)=C/CN)c3ccc(C)nc23)c1 [Compound 113, (Z)-4-(3-(3-(ethylsulfonyl)phenyl)-2-isopropyl-5-methyl-1H-pyrrolo[3,2-b]pyridin-1-yl)-3-fluorobut-2-en-1-amine Dihydrochloride]
Human LOXL2
  IC50: < 0.3 µM
Bovine LOX
  IC50: > 0.3 µM

## Cc1c(-c2cccc(S(C)(=O)=O)c2)c2nc(CF)ccc2n1C/C(F)=C/CN [Compound 115, (Z)-3-fluoro-4-(5-(fluoromethyl)-2-methyl-3-(3-(methylsulfonyl)phenyl)-1H-pyrrolo[3,2-b]pyridin-1-yl)but-2-en-1-amine Dihydrochloride]
Human LOXL2
  IC50: < 0.3 µM
Bovine LOX
  IC50: > 0.3 µM

## CCS(=O)(=O)c1cccc(-c2c(C)n(C/C(F)=C/CN)c3ccc(C)nc23)c1 [Compound 114, (Z)-4-(3-(3-(ethylsulfonyl)phenyl)-2,5-dimethyl-1H-pyrrolo[3,2-b]pyridin-1-yl)-3-fluorobut-2-en-1-amine Dihydrochloride]
Human LOXL2
  IC50: < 0.3 µM
Bovine LOX
  IC50: > 0.3 µM

## Cc1c(-c2cccc(S(C)(=O)=O)c2)c2nc(C(C)(C)O)ccc2n1C/C(F)=C/CN [Compound 116, (Z)-2-(1-(4-amino-2-fluorobut-2-en-1-yl)-2-methyl-3-(3-(methylsulfonyl)phenyl)-1H-pyrrolo[3,2-b]pyridin-5-yl)propan-2-ol Dihydrochloride]
Human LOXL2
  IC50: < 0.3 µM
Bovine LOX
  IC50: > 0.3 µM
